Test results as given in patent US4127722A, “Benzhydrylsulphinyl derivatives” (Laboratoire L. Lafon, priority 1975, dated 1978).

How the values were obtained:
[1] = system: hypothermia, trembling and peripheral cholinergic symptoms brought about by oxotremorine; experiment: Interaction with oxotremorine; format: in vivo, mice; settings: for effect towards oxotremorine: in words
Protocol: Mice (6 per dose) are given an intraperitoneal injection of 0.5 mg/kg of oxotremorine 30 minutes after the administration of CRL 40,028.

[2] = General behaviour / psychopharmacological spectrum (species not stated); format: in vivo; settings: for mydriatic effect: in words
[3] = system: stereotype behaviour induced by amphetamine; experiment: Interaction with amphetamine; format: in vivo, rats; settings: for boosting of stereotypies produced by amphetamine-type compounds: in words; for duration of the stereotypies brought about by amphetamine: rat, in vivo
Protocol: Amphetamine (2 mg/kg, given intraperitoneally) is injected 30 minutes after the administration of CRL 40,028 (6 rats/dose).

[4] = system: central nervous system; experiment: Pharmacological tests: action on the central nervous system, overall profile; format: in vivo; settings: for action on the central nervous system: in words
Protocol: The results of the pharmacological tests which were carried out have been summarised below.

[5] = Solubility in water
[6] = system: mice; experiment: General behaviour, mice; format: in vivo; settings: mice
[7] = system: mice; experiment: Toxicity, intraperitoneal administration, mice; format: in vivo; settings: intraperitoneal administration
[8] = system: residual motility; experiment: Residual motility; format: in vivo, mice
[9] = system: passes which entail pain; experiment: Four plate test; format: in vivo, mice; settings: in words
Protocol: (§1) The test is carried out on batches of 20 mice, 30 minutes after the administration of CRL 40,028.

[10] = system: hypothermia and ptosis produced by reserpine; experiment: Interaction with reserpine; format: in vivo, mice
Protocol: Batches of 6 mice are given an intraperitoneal injection of reserpine (2.5 mg/kg) 4 hours before the administration of CRL 40,028.

[11] = system: convulsive effects of the electric shock; experiment: Electric shock; format: in vivo, mice
Protocol: as §1

[12] = system: spontaneous motility; experiment: Spontaneous motility (actimetry); format: in vivo, mice; settings: mice
Protocol: CRL 40,028 increases the motor activity of the animals from a dose of 16 mg/kg onwards. As this effect is representative of the activity of CRL 40,028, attempts have been made to obtain its kinetics more precisely. […]

[13] = system: rats; experiment: General behaviour, rats; format: in vivo
[14] = system: groups of mice; experiment: Group toxicity; settings: Table IV, graded symbols
[15] = system: passes which entail pain; settings: mentioned for comparison; cited from earlier work
[16] = at doses close to the toxic dose; mentioned for comparison; cited from earlier work
[17] = at medium doses, very moderate intensity

**Q.** Which effect towards oxotremorine [1] does the source give for `Cl.NC(C[S+]([O-])C(c1ccccc1)c1ccccc1)=NO` (stereo not shown) [CRL 40,048, Benzhydrylsulphinylacetamidoxime hydrochloride] here?
**A.** Its effect towards oxotremorine is “antagonist action on oxotremorine”.

**Q.** And the mydriatic effect [2]?
**A.** The mydriatic effect was “absence of a mydriatic effect”.

**Q.** What about the “boosting of stereotypies produced by amphetamine-type compounds” value [3] of the same compound?
**A.** The value was “boosts stereotypies produced by amphetamine-type compounds”.

**Q.** What about the “action on the central nervous system” value [4] of the same compound?
**A.** The value was “acts only on the central nervous system”.

**Q.** What about the solubility [5] of the same compound?
**A.** The solubility was 100 mg/mL.

**Q.** And the “hyper-reactivity to the touch” value [6]?
**A.** Its value is “hyper-reactivity to the touch”.

**Q.** What does the source list for `Cl.[O-][S+](CCN1CCOCC1)C(c1ccccc1)c1ccccc1` (stereo not shown) [CRL 40,221, N-[2-(Benzhydrylsulphinyl)-ethyl]-morpholine hydrochloride]?
**A.** LD-O [7]: greater than 512 mg/kg; motor activity in mice accustomed to their chamber ([8]; mice): a resumption of motor activity; effect towards oxotremorine [1]: an anti-oxotremorine effect; sedation ([2]; at doses close to the toxic dose): a sedation at doses close to the toxic dose; hypothermia ([2]; at high doses): hypothermia at high doses; mydriatic effect [2]: a considerable mydriasis; effect in the four plate test [9]: a certain effect in the four plate test; anti-reserpine effect ([10]; in words): an anti-reserpine effect; boosting of stereotypies produced by amphetamine-type compounds [3]: a (metabolic) boosting of the stereotypies; protection against convulsions produced by electric shock ([11]; in words): a protection against convulsions; psychopharmacological spectrum ([4]; comparison with tricyclic anti-depressants): close to that of tricyclic anti-depressants

**Q.** For `Cl.[O-][S+](CCN1CCCCC1)C(c1ccccc1)c1ccccc1` (stereo not shown) [CRL 40,222, N-[2-(Benzhydrylsulphinyl)-ethyl]-piperidine hydrochloride], which LD-O [7] is on record?
**A.** The LD-O was “greater than 128 mg/kg”.

**Q.** What about the residual motility ([8]; mice, 8 mg/kg) of the same compound?
**A.** Its residual motility is “a stimulation of the residual motility”.

**Q.** What about the spontaneous motility ([12]; only at a low dose of 1 mg/kg) of the same compound?
**A.** The spontaneous motility was “an increase in the spontaneous motility”.

**Q.** What about the effect towards oxotremorine [1] of the same compound?
**A.** Its effect towards oxotremorine is “a moderate action towards oxotremorine”.

**Q.** What about the anti-reserpine effect ([10]; in words) of the same compound?
**A.** Its anti-reserpine effect is “absence of an anti-reserpine effect”.

**Q.** And the “duration of the stereotypies brought about by amphetamine” value [3]?
**A.** The value was “an increase in the duration of the stereotypies”.

**Q.** And the “action on the central nervous system” value [4]?
**A.** Its value is “acts on the central nervous system”.

**Q.** With `O=C(CC[S+]([O-])C(c1ccccc1)c1ccccc1)NO` (stereo not shown) [CRL 40,260, 3-(Benzhydrylsulphinyl)-propionohydroxamic acid] as the compound, how does the LD-O [7] read?
**A.** The LD-O was “greater than 1,024 mg/kg”.

**Q.** What about the toxicity in words [7] of the same compound?
**A.** The toxicity in words was “low toxicity”.

**Q.** What about the spontaneous motility [12] of the same compound?
**A.** The spontaneous motility was “a reduction in the spontaneous motility”.

**Q.** What about the hyper-reactivity [13] of the same compound?
**A.** The hyper-reactivity was “a hyper-reactivity”.

**Q.** What about the “sedation, with hypomotility” value [13] of the same compound?
**A.** Its value is “a sedation, with hypomotility”.

**Q.** What about the hyper-reactivity [6] of the same compound?
**A.** Its hyper-reactivity is “a hyper-reactivity”.

**Q.** And the “sedation, with hypomotility” value [6]?
**A.** Its value is “a sedation, with hypomotility”.

**Q.** What does the source list for `Cl.NC(CC[S+]([O-])C(c1ccccc1)c1ccccc1)=NO` (stereo not shown) [CRL 40,261, 3-(Benzhydrylsulphinyl)-propionamidoxime hydrochloride]?
**A.** LD-O [7]: greater than 256 mg/kg; spontaneous motility ([12]; 2 mg/kg, 8 mg/kg and 32 mg/kg): an increase in the spontaneous motility; effect towards oxotremorine [1]: moderate effect towards oxotremorine; hypothermia due to reserpine ([10]; in words): an increase in the hypothermia due to reserpine; palpebral ptosis induced by reserpine ([10]; in words): without alteration of the palpebral ptosis; duration of the stereotypies brought about by amphetamine [3]: an increase in the duration of the stereotypies

**Q.** For `Cl.NC(CCC[S+]([O-])C(c1ccccc1)c1ccccc1)=NO` (stereo not shown) [CRL 40,277, 4-(Benzhydrylsulphinyl)-butyramidoxime hydrochloride], which LD-O [7] is on record?
**A.** The LD-O was “greater than 512 mg/kg”.

**Q.** What about the residual hypermotility [8, 17] of the same compound?
**A.** Its residual hypermotility is “inconstant residual hypermotility”.

**Q.** What about the “hypothermic effects of oxotremorine” value ([1]; at high doses) of the same compound?
**A.** Its value is “aggravation of the hypothermic effects”.

**Q.** What about the hypomotility ([2]; at high doses) of the same compound?
**A.** Its hypomotility is “hypomotility”.

**Q.** What about the hypothermia ([2]; at high doses) of the same compound?
**A.** The hypothermia was “hypothermia”.

**Q.** And the hyper-reactivity [2, 17]?
**A.** Its hyper-reactivity is “hyper-reactivity”.

**Q.** What about the “hypothermic effects of reserpine” value ([10]; at high doses) of the same compound?
**A.** The value was “aggravation of the hypothermic effects of reserpine”.

**Q.** And the “boosting of the effect of amphetamine” value [3, 17]?
**A.** The value was “boosting of the effect of amphetamine”.

**Q.** What about the “lethal effects of the electric shock” value ([11]; at high doses) of the same compound?
**A.** Its value is “an aggravation of the lethal effects of the electric shock”.

**Q.** And the “action on the central nervous system” value [4]?
**A.** Its value is “acts on the central nervous system”.

**Q.** With `O=C(CCC[S+]([O-])C(c1ccccc1)c1ccccc1)NO` (stereo not shown) [CRL 40,278, 4-(Benzhydrylsulphinyl)-butyrohydroxamic acid] as the compound, how does the LD-O [7] read?
**A.** The LD-O was “greater than 1,024 mg/kg”.

**Q.** What about the “action on the central nervous system” value [4] of the same compound?
**A.** The value was “acts on the central nervous system”.

**Q.** Which “Anti-oxotremorine action (peripheral)” value ([1]; Table IV, graded symbols) does the source give for `Cn1c(=O)c2c(ncn2C)n(C)c1=O` [Caffeine, reference compound] here?
**A.** Its value is 0.

**Q.** What about the “Anti-oxotremorine action (trembling)” value ([1]; Table IV, graded symbols) of the same compound?
**A.** The value was 0.

**Q.** And the “Anti-reserpine action (ptosis)” value ([10]; Table IV, graded symbols)?
**A.** Its value is 0.

**Q.** What about the Group toxicity [14] of the same compound?
**A.** The Group toxicity was 0.

**Q.** Which “effect in the four plate test (comparison drug)” value (“effect … (comparison drug)” below) [15] does the source give for `CN(C)CCC=C1c2ccccc2CCc2ccccc21` [amitriptyline] here?
**A.** Its value is “a certain effect in the four plate test”.

**Q.** What about the “sedation (comparison drug)” value [16] of the same compound?
**A.** The value was “not”.

**Q.** For `CN(C)CCCN1c2ccccc2CCc2ccccc21` [imipramine], which “effect … (comparison drug)” value [15] is on record?
**A.** The value was “a certain effect in the four plate test”.

**Q.** Which “effect … (comparison drug)” value [15] does the source give for `CNCCC=C1c2ccccc2CCc2ccccc21` [nortriptyline] here?
**A.** The value was “not”.

**Q.** What about the “sedation (comparison drug)” value [16] of the same compound?
**A.** Its value is “a sedation at doses close to the toxic dose”.
